The results in this text go back to patent US20190133997A1, “ARTEMISININ ANALOG, AND USE, METHOD, AND COMPOSITION FOR PROMOTING LIPID CATABOLISM AND IMPROVING SUGAR METABOLISM” (FUDAN UNIVERSITY, priority 2016, published 2019).

Experiment [1] has as its system obese mice induced by high-fat diet. The experiment is described as follows: Subcutaneous artemether, glucose and insulin tolerance tests in high-fat diet obese mice. It counts as in vivo, Male C57BL/6J mice. The following applies: subcutaneous injection, eight weeks. On the procedure:
The mice were breeded in the SPF animal laboratory of the Laboratory Animal Center of Fudan University at a room temperature of 21° C.-23° C. with a 12-hour light/dark cycle. […] When the mice were grown to 8-week old, they were randomly divided into a control group and an administration group, with 8 mice in each group. While the mice were fed with a high-fat diet, artemether was injected subcutaneously. Artemether was diluted in PBS at a concentration of […], and injected into bilateral inguinal region, with 200 μl being injected into each side. Mice in control group were injected with the same volume of PBS. Administration was continued for eight weeks.
The mice were fasted for 12-16 hours and injected intraperitoneally with glucose injection at a dose of […]. At 0 min, 30 min, 60 min, 90 min, and 120 min after injection, blood was collected from the tail vein, and blood glucose was measured with OneTouch ExtraEasy glucometer and OneTouch ExtraEasy blood glucose test strips and the results were recorded.
Insulin was injected intraperitoneally at a dose of 0.75 U/kg weight. At 0 min, 15 min, 30 min, 45 min and 60 min after injection, blood was collected from the tail vein, and blood glucose was measured.

Experiment [2] has the same test system. Briefly: Intraperitoneal artemether, fatty liver in obese mice induced by high-fat diet (HE staining). It is filed as in vivo, Male C57BL/6J mice. The following applies: intraperitoneal 20 mg/kg twice a week, eight weeks. The procedure: The mice were breeded in the SPF animal laboratory of the Laboratory Animal Center of Fudan University at a room temperature of 21° C.-23° C. with a 12-hour light/dark cycle. […] When the mice were grown to 8-week old, they were randomly divided into a control group and an administration group, with 8 mice in each group. While the mice were fed with a high-fat diet, artemether was injected intraperitoneally. Artemether for intraperitoneal injection was stored at 4° C. in coconut oil at a storage concentration of 6 mg/ml (20 mMol/L), and protected from light. Mice in administration group were injected with artemether at a dose of 20 mg/kg weight. Administration was twice a week for eight weeks. The mice were sacrificed by cervical dislocation, and liver tissues of mice were removed and fixed. The histological analysis for liver was commissioned by Shanghai Saige Biotech Co., Ltd., and the histological analysis process included tissue fixation, paraffin embedding, sectioning and HE staining.

`CO[C@H]1O[C@@H]2O[C@@]3(C)CC[C@H]4[C@H](C)CC[C@@H]([C@H]1C)[C@@]24OO3` [artemether]: in experiment [1], the glucose tolerance entry is given as “significantly better than that of mice in control group” and the insulin tolerance entry is “significantly better than that of mice in control group”. Also, in experiment [2], the “morphology of the liver cells” value is listed as “almost normal”. Also, the “lipid in the liver (fatty liver)” value in experiment [2] (control: obvious lipid accumulation) was “only a small amount of lipid”.
